Assay results published in the CheMixHub viscosity set.
± gives the uncertainty stated by the source.

Assay: xn = mol fraction of the nth substance listed

CCC(C)(C)OC + c1ccccc1
viscosity [mPa·s], 100 kPa
Conditions | x1 = 0.051 | x1 = 0.1986 | x1 = 0.2998 | x1 = 0.3995 | x1 = 0.4992 | x1 = 0.5905 | x1 = 0.6974 | x1 = 0.8012 | x1 = 0.8948 | x1 = 0.9496
293.15 K | 0.623 ± 0.03 | 0.579 ± 0.03 | 0.553 ± 0.03 | 0.53 ± 0.03 | 0.51 ± 0.03 | 0.493 ± 0.03 | 0.475 ± 0.03 | 0.46 ± 0.03 | 0.451 ± 0.03 | 0.445 ± 0.03
303.15 K | 0.547 ± 0.03 | 0.513 ± 0.03 | 0.493 ± 0.03 | 0.475 ± 0.03 | 0.461 ± 0.03 | 0.449 ± 0.03 | 0.436 ± 0.03 | 0.427 ± 0.03 | 0.422 ± 0.03 | 0.418 ± 0.03
313.15 K | 0.478 ± 0.03 | 0.447 ± 0.03 | 0.43 ± 0.03 | 0.414 ± 0.03 | 0.402 ± 0.03 | 0.392 ± 0.03 | 0.381 ± 0.03 | 0.375 ± 0.03 | 0.372 ± 0.03 | 0.37 ± 0.03

C=Cc1ccccc1 + CO
viscosity [mPa·s], 101.33 kPa
Conditions | x1 = 0.1005 | x1 = 0.192 | x1 = 0.3007 | x1 = 0.4018 | x1 = 0.4981 | x1 = 0.5994 | x1 = 0.7011 | x1 = 0.8049 | x1 = 0.8981
298.15 K | 0.591 ± 0.032 | 0.623 ± 0.033 | 0.65 ± 0.034 | 0.669 ± 0.035 | 0.679 ± 0.036 | 0.686 ± 0.036 | 0.692 ± 0.036 | 0.701 ± 0.037 | 0.706 ± 0.037
303.15 K | 0.55 ± 0.03 | 0.583 ± 0.031 | 0.608 ± 0.033 | 0.618 ± 0.033 | 0.634 ± 0.034 | 0.642 ± 0.034 | 0.646 ± 0.034 | 0.655 ± 0.035 | 0.661 ± 0.035
308.15 K | 0.515 ± 0.029 | 0.543 ± 0.03 | 0.569 ± 0.031 | 0.587 ± 0.032 | 0.594 ± 0.032 | 0.598 ± 0.032 | 0.602 ± 0.032 | 0.61 ± 0.033 | 0.617 ± 0.033

CC(=O)c1ccc(Cl)cc1 + CCOC(=O)OCC
303.15 K, 101 kPa
Conditions | viscosity [mPa·s]
x2 = 0.0511 | 2.657 ± 0.02
x2 = 0.1131 | 2.468 ± 0.018
x2 = 0.1611 | 2.309 ± 0.017
x2 = 0.2221 | 2.126 ± 0.015
x2 = 0.2808 | 1.948 ± 0.014
x2 = 0.3435 | 1.765 ± 0.013
x2 = 0.4256 | 1.557 ± 0.011
x2 = 0.5032 | 1.372 ± 0.01
x2 = 0.6089 | 1.162 ± 0.008
x2 = 0.6807 | 1.045 ± 0.007
x2 = 0.7618 | 0.927 ± 0.006
x2 = 0.8127 | 0.877 ± 0.006
x2 = 0.8641 | 0.825 ± 0.006
x2 = 0.9197 | 0.774 ± 0.005
x2 = 0.9678 | 0.725 ± 0.005

CCOC(F)(F)C(F)(C(F)(F)F)C(F)(F)F + CCOC(F)(F)C(F)(F)C(F)(F)C(F)(F)F
100 kPa, x2 = 0.422
Conditions | viscosity [mPa·s]
298.16 K | 0.6423 ± 0.014
303.18 K | 0.5987 ± 0.013
